# Assay results from US20240067651A1 (Biohaven Therapeutics Ltd., priority 2019, published 2024).
# Like-named read-outs stand apart in the source and are kept apart here.
# Tests used:
# Caco-2 monolayer = test: Caco-2 Permeability Assay; type: in vitro ADME, human
# Outline: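 Bidirectional transport at 37 °C for 90 min, 10 μM donor concentration, with or without Pgp inhibitor, across 21-day Caco-2 monolayers with TEER >600 […] in HEPES-buffered HBSS, pH 7.4. LC-MS/MS of donor and receiver samples gives Papp, B→A/A→B efflux ratio and mass recovery.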
# [1] = Stability in Simulated Gastric Fluid (SGF); type: in vitro ADME; set-up: key: % parent compound remaining relative to 0-minute sample
# Outline: (§1)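 2 μg/mL final; SGF + pepsin pH 1.2 or SIF + pancreatin pH 6.8; 37° C, 150 rpm, 0–60 min. ACN quench with propranolol IS, LC-MS/MS. % parent vs 0 min; t1/2 from ln plot.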
# [2] = Stability in Simulated Intestinal Fluid (SIF); type: in vitro ADME; set-up: key: % parent compound remaining relative to 0-minute sample
# Outline: as §1
# Plasma Stability = type: in vitro ADME, human
# Outline: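 Parent compound quantified by LC-MS/MS after acetonitrile precipitation, reported as percent of control remaining (triplicate). Incubation: 1 hour, 37° C, fresh human plasma, compound at 1 μM.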
# [3] = simulated gastric fluid, remaining at 1 h
# [4] = simulated intestinal fluid, remaining at 1 h
# [5] = % remaining after 1 h in simulated gastric fluid
# [6] = % remaining after 1 h in simulated intestinal fluid
# [7] = % remaining after 1 h in human plasma
# [8] = % remaining at 1 h, SGF with pepsin pH 1.2, 2 μg/mL, 37° C.
# [9] = % remaining at 1 h, SIF with pancreatin pH 6.8, 2 μg/mL, 37° C.
# [10] = % remaining at 1 h, human plasma, 1 μM, 37° C.
# [11] = % remaining at 1 h in simulated gastric fluid
# [12] = % remaining at 1 h in simulated intestinal fluid
# [13] = % remaining at 1 h in human plasma
compound,measurement,setting,value
"(2R)-2-amino-N-[2-(2-{[{{4-oxo-1-[2-(propan-2-yloxy)ethyl]-2-sulfanylidene-1H,2H,3H,4H,5H-pyrrolo[3,2-d]pyrimidin-5-yl}methoxy)carbonyl]oxy}ethoxy)eth-yl]-3-phenylpropanamide; trifluoroacetic acid [Example 388]",Caco-2 Papp,Caco-2 monolayer; Caco-2 monolayer,<1.99 ×10⁻⁶ cm/s
same,SGF,[1]; [3],97% remaining
same,SIF,[2]; [4],73% remaining
same,human Plasma stability,"Plasma Stability; human plasma, remaining at 1 h",1% remaining
"15-[2-(propan-2-yloxy)ethyl]-14-sulfanylidene-3,5,9,11-tetraoxa-1,13,15-triazatricyclo[11.5.2.0^{16,19}]icosa 16(19),17-diene-4,10,20-trione [Example 409]",Caco-2 Papp,Caco-2 monolayer; Caco-2 monolayer,<0.107 ×10⁻⁶ cm/s
same,SGF,[1]; [5],94% remaining
same,SIF,[2]; [6],28% remaining
same,human Plasma stability,Plasma Stability; [7],4% remaining
"CC(C)OCCn1c(=S)[nH]c(=O)c2c1ccn2C(=O)NCCOCCNC(=O)[C@H](NC(=O)OC(C)(C)C)C(C)C [Example 378, tert-butyl N-[(1R)-2-methyl-1-({2-[2-({4-oxo-1-[2-(propan-2-yloxy)ethyl]-2-sulfanylidene-1H,2H,3H,4H,5H-pyrrolo[3,2-d]pyrimidine-5-carbonyl}amino)ethoxy]ethyl}carba-moyl)propyl]carbamate]",Caco-2 Papp,Caco-2 monolayer; Caco-2 monolayer,0.0903 ×10⁻⁶ cm/s
same,SGF,"[1]; simulated gastric fluid, bare number, unit or time not given",98
same,SIF,"[2]; simulated intestinal fluid, bare number, unit or time not given",96
same,human Plasma stability,"Plasma Stability; human plasma, remaining at 1 h",93% remaining
"CC(C)OCCn1c(=S)[nH]c(=O)c2c1ccn2COC(=O)[C@H]1CCCN1C(=O)OC(C)(C)C [Example 3, 1-tert-butyl 2-{4-oxo-1-[2-(propan-2-yloxy)ethyl]-2-sulfanylidene-1H,2H,3H,4H,5H-pyrrolo[3,2-d]pyrimidin-5-yl} methyl (2R)-pyrrolidine-1,2-dicarboxylate]",Caco-2 Papp,"Caco-2 monolayer; donor 10 μM, 90 minutes, 37° C., direction not given",41.9 ×10⁻⁶ cm/s
same,SGF,[1]; [8],84%
same,SIF,[2]; [9],89%
same,human Plasma stability,Plasma Stability; [10],99%
"5-{[2-({[(5-{[(2S)-2-{[(tert-butoxy)carbonyl]amino}-4-methylpentanoyl]oxy}penta-noyl)oxy]methyl}sulfanyl)-4-oxo-1-[2-(propan-2-yloxy)ethyl]-1H,4H,5H-pyrrolo[3,2-d]pyrimidin-5-yl]methoxy}-5-oxopentyl (2S)-2-{[(tert-butoxy)carbonyl]amino}-4-methylpentanoate [Example 343]",Caco-2 Papp,Caco-2 monolayer; Caco-2,4.67 ×10⁻⁶ cm/s
same,SGF,[1]; % remaining @ 1 h,82% remaining
same,SIF,[2]; % remaining @ 1 h,29% remaining
same,human Plasma stability,Plasma Stability; % remaining @ 1 h,1% remaining
"CC(C)OCCn1c(=S)n(COC(=O)CCCOC(=O)[C@H](N)C(C)C)c(=O)c2c1ccn2COC(=O)CCCOC(=O)[C@H](N)C(C)C.O=C(O)C(F)(F)F.O=C(O)C(F)(F)F [Example 360, bis(trifluoroacetic acid) 4-[(3-{[(4-{[(2R)-2-amino-3-methylbutanoyl]oxy}buta-noyl)oxy]methyl}-4-oxo-1-[2-(propan-2-yloxy)ethyl]-2-sulfanylidene-1H,2H,3H,4H,5H-pyrrolo[3,2-d]pyrimidin-5-yl)methoxy]-4-oxobutyl (2R)-2-amino-3-methylbutanoate]",Caco-2 Papp,Caco-2 monolayer; Caco-2 monolayer,<0.628 ×10⁻⁶ cm/s
same,SGF,[1]; [3],46% remaining
same,SIF,[2]; [4],56% remaining
same,human Plasma stability,"Plasma Stability; human plasma, remaining at 1 h",3% remaining
"CSCC[C@H](N)C(=O)NCCC(=O)OCn1ccc2c1c(=O)[nH]c(=S)n2CCOC(C)C.O=C(O)C(F)(F)F [Example 32, trifluoroacetic acid {4-oxo-1-[2-(propan-2-yloxy)ethyl]-2-sulfanylidene-1H,2H,3H,4H,5H-pyrrolo [3,2-d]pyrimidin-5-yl} methyl 3-[(2S)-2-amino-4-(methylsulfanyl)butanamido]propanoate]",Caco-2 Papp,Caco-2 monolayer; Caco-2 monolayer,0.147 ×10⁻⁶ cm/s
same,SGF,[1]; [11],97% remaining
same,SIF,[2]; [12],33% remaining
same,human Plasma stability,Plasma Stability; [13],17% remaining
"1-tert-butyl 2-{4-oxo-1-[2-(propan-2-yloxy)ethyl]-2-sulfanylidene-1H,2H,3H,4H,5H-pyrrolo[3,2-d]pyrimidin-5-yl}methyl (2R)-pyrrolidine-1,2-dicarboxylate [Example 393]",Caco-2 Papp,Caco-2 monolayer; Caco-2 monolayer,0.11 ×10⁻⁶ cm/s
same,SGF,[1]; [3],99% remaining
same,SIF,[2]; [4],94% remaining
same,human Plasma stability,"Plasma Stability; human plasma, remaining at 1 h",92% remaining
"{4-oxo-1-[2-(propan-2-yloxy)ethyl]-2-sulfanylidene-1H,2H,3H,4H,5H-pyrrolo[3,2-d]pyrimidin-5-yl}methyl (2R)-2-{[(tert-butoxy)carbonyl]amino}propanoate [Example 291]",Caco-2 Papp,Caco-2 monolayer,21.9 ×10⁻⁶ cm/s
same,SGF,[1]; % remaining @ 1 h,66% @ 1 h
same,SIF,[2]; % remaining @ 1 h,30% @ 1 h
same,human Plasma stability,Plasma Stability; % remaining @ 1 h,0% @ 1 h
"trifluoroacetic acid ({4-oxo-1-[2-(propan-2-yloxy)ethyl]-1H,4H,5H-pyrrolo[3,2-d]pyrimidin-2-yl}sulfanyl)methyl N-[2-(2-aminoethoxy)ethyl]carbamate [Example 374]",Caco-2 Papp,Caco-2 monolayer; Caco-2 monolayer,9.06 ×10⁻⁶ cm/s
same,SGF,[1]; [3],75% remaining
same,SIF,[2]; [4],94% remaining
same,human Plasma stability,"Plasma Stability; human plasma, remaining at 1 h",82% remaining
"COCCOCCOC(=O)OCn1c(=O)c2c(ccn2COC(=O)OCCOCCOC)n(CCOC(C)C)c1=S [Example 106, {3-[{{[2-(2-methoxyethoxy)ethoxy]carbonyl}oxy)methyl]-4-oxo-1-[2-(propan-2-yloxy)ethyl]-2-sulfanylidene-1H,2H,3H,4H,5H-pyrrolo[3,2-d]pyrimidin-5-yl} methyl 2-(2-methoxyethoxy)ethyl carbonate]",Caco-2 Papp,Caco-2 monolayer; unit inferred,13.9 ×10⁻⁶ cm/s
same,SGF,[1]; [8],100%
same,SIF,[2]; [9],1%
same,human Plasma stability,Plasma Stability; [10],2%
"CC(C)OCCn1c(=S)[nH]c(=O)c2c1ccn2COC(=O)CCCCNC(=O)[C@@H](N)CCc1ccccc1.O=C(O)C(F)(F)F [Example 24, trifluoroacetic acid {4-oxo-1-[2-(propan-2-yloxy)ethyl]-2-sulfanylidene-1H,2H,3H,4H,5H-pyrrolo [3,2-d]pyrimidin-5-yl} methyl 5-[(2S)-2-amino-4-phenylbutanamido]pentanoate]",Caco-2 Papp,Caco-2 monolayer; Caco-2 monolayer,0.302 ×10⁻⁶ cm/s
same,SGF,[1]; [11],99% remaining
same,SIF,[2]; [12],76% remaining
same,human Plasma stability,Plasma Stability; [13],1% remaining
"CC(C)C[C@H](NC(=O)OC(C)(C)C)C(=O)OCSc1nc(=O)c2c(ccn2COC(=O)[C@H](CC(C)C)NC(=O)OC(C)(C)C)n1CCOC(C)C [Example 315, {[5-({[(2S)-2-{[ (tert-butoxy)carbonyl]amino}-4-methylpentanoyl]oxy}methyl)-4-oxo-1-[2-(propan-2-yloxy)ethyl]-1H,4H,5H-pyrrolo[3,2-d]pyrimidin-2-yl]sulfanyl} methyl (2S)-2-{[(tert-butoxy)carbonyl]amino}-4-methylpentanoate]",Caco-2 Papp,Caco-2 monolayer; Caco-2,14.1 ×10⁻⁶ cm/s
same,SGF,[1]; % remaining @ 1 h,78%@ 1 h
same,SIF,[2]; % remaining @ 1 h,5%@ 1 h
same,human Plasma stability,Plasma Stability; % remaining @ 1 h,7%@ 1 h
"5-{[({2-[2-(2-{[(tert-butoxy)carbonyl]amino}ethoxy)eth-oxy]ethoxy}carbonyl)oxy]methyl}-1-[2-(propan-2-yloxy)ethyl]-2-sulfanylidene-1H,2H,3H,4H,5H-pyrrolo[3,2-d]pyrimidin-4-one [Example 370]",Caco-2 Papp,Caco-2 monolayer; Caco-2 monolayer,1.54 ×10⁻⁶ cm/s
same,SGF,[1]; [3],99% remaining
same,SIF,[2]; [4],35% remaining
same,human Plasma stability,"Plasma Stability; human plasma, remaining at 1 h",1% remaining
"(2R)-2-amino-4-methyl-N-[2-(2-{[{{4-oxo-1-[2-(propan-2-yloxy)ethyl]-2-sulfanylidene-1H,2H,3H,4H,5H-pyrrolo[3,2-d]pyrimidin-5-yl}methoxy)carbonyl]oxy}ethoxy)eth-yl]pentanamide; trifluoroacetic acid [Example 386]",Caco-2 Papp,Caco-2 monolayer; Caco-2 monolayer,0.077 ×10⁻⁶ cm/s
same,SGF,[1]; [3],93% remaining
same,SIF,[2]; [4],86% remaining
same,human Plasma stability,"Plasma Stability; human plasma, remaining at 1 h",23% remaining
"{4-oxo-1-[2-(propan-2-yloxy)ethyl]-2-sulfanylidene-1H,2H,3H,4H,5H-pyrrolo [3,2-d]pyrimidin-5-yl}methyl 2-[(2S)-2-(benzoyloxy)-N,3-dimethylbutanamido]acetate [Example 401]",Caco-2 Papp,Caco-2 monolayer; Caco-2 monolayer,0.43 ×10⁻⁶ cm/s
same,SGF,[1]; [5],90% remaining
same,SIF,[2]; [6],8% remaining
same,human Plasma stability,Plasma Stability; [7],0% remaining
"{4-oxo-1-[2-(propan-2-yloxy)ethyl]-2-sulfanylidene-1H,2H,3H,4H,5H-pyrrolo[3,2-d]pyrimidin-5-yl}methyl 2-[2-(acetyloxy)-N-methylacetamido]acetate [Example 400]",Caco-2 Papp,Caco-2 monolayer; Caco-2 monolayer,0.242 ×10⁻⁶ cm/s
same,SGF,[1]; [5],99% remaining
same,SIF,[2]; [6],26% remaining
same,human Plasma stability,Plasma Stability; [7],89% remaining
"bis (trifluoroacetic acid) 5-{[2-({[(5-{[(2S)-2-amino-4-methylpentanoyl]oxy}penta-noyl)oxy]methyl}sulfanyl)-4-oxo-1-[2-(propan-2-yloxy)ethyl]-1H,4H,5H-pyrrolo[3,2-d]pyrimidin-5-yl]methoxy}-5-oxopentyl (2S)-2-amino-4-methylpentanoate [Example 346]",Caco-2 Papp,Caco-2 monolayer; Caco-2,<0.0623 ×10⁻⁶ cm/s
same,SGF,[1]; % remaining @ 1 h,97% remaining
same,SIF,[2]; % remaining @ 1 h,7% remaining
same,human Plasma stability,Plasma Stability; % remaining @ 1 h,98% remaining
